{
  "source": "patent US9079902B2",
  "about": "“Heteroaryl sodium channel inhibitors” (AMGEN INC., priority 2011, dated 2015)",
  "key": {"[1]": {"biological_target": "Nav 1.5 (Homo sapiens (Human), UniProt Q14524)", "sequence (Q14524 whole entry)": "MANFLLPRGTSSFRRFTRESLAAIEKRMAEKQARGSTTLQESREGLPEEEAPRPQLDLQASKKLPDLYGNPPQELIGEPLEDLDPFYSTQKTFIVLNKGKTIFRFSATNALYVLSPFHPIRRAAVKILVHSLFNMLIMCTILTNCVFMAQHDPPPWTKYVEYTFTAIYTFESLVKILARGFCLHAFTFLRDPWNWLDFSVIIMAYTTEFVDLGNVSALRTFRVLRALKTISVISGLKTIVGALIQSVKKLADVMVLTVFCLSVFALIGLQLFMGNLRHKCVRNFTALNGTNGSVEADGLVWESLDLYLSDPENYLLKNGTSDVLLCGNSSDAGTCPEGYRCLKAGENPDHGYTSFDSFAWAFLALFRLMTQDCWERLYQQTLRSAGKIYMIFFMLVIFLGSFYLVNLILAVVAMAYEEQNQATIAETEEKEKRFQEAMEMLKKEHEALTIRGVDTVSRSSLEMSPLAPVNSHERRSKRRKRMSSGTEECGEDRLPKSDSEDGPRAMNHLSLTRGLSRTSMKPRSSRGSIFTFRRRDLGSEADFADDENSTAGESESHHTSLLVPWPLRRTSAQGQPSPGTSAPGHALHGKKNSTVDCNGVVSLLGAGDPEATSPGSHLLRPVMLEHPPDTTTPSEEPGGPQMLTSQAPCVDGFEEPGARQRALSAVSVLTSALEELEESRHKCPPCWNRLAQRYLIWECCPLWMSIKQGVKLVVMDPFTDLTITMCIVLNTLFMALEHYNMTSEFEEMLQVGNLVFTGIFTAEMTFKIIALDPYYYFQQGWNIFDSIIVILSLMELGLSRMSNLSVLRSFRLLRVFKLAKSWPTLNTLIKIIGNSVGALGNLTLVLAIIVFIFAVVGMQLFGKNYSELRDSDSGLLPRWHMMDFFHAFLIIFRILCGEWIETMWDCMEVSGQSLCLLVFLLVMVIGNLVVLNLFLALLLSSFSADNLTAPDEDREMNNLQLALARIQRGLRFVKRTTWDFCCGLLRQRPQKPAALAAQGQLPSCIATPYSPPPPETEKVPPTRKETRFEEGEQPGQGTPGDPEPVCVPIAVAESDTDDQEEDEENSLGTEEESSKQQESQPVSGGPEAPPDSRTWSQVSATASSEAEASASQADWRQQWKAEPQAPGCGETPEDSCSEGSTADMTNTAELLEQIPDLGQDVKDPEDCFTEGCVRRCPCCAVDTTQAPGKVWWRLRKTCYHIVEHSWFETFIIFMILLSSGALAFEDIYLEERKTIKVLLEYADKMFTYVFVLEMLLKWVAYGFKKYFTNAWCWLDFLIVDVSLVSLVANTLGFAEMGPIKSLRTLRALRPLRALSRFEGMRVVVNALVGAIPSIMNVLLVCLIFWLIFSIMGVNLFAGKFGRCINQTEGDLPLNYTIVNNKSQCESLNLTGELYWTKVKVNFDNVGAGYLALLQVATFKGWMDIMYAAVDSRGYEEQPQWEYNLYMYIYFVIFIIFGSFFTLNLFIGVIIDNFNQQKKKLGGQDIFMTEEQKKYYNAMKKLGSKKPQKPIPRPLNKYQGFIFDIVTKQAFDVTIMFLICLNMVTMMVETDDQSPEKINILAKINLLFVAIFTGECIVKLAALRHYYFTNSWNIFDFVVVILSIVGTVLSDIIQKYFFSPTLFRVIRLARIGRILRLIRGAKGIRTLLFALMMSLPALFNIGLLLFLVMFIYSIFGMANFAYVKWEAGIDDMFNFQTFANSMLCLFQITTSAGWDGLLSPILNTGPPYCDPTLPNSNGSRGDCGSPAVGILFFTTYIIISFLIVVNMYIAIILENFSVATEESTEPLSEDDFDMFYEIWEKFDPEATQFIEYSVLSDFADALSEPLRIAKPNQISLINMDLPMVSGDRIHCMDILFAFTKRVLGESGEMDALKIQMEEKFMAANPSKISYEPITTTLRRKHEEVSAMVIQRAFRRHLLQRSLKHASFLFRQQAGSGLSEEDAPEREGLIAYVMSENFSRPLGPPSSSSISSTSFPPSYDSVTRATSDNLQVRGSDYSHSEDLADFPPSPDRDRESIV", "experiment": "Nav 1.5 in vitro assay (IonWorks Quattro population patch-clamp)", "format": "cell-based", "conditions": "293 cells stably transfected with Nav 1.5; 26th pulse to -20 mV, 5 Hz", "experimental": "(§1) Nav 1.7 and Nav 1.5 In Vitro Assay\n(§2) 293 cells stably transfected with either Nav 1.7 or with Nav 1.5 were recorded in population patch-clamp mode with the IonWorks® Quattro automated electrophysiology system in accordance with the manufacturer's specifications (Molecular Devices, LLC, Sunnyvale, Calif.). Sodium channel currents were measured in response to a train of depolarizations that induced successively greater inactivation.\n(§3) Cells were held at −110 mV for three seconds (Nav 1.7) or half a second (Nav 1.5) from a holding voltage of −15 mV, then put through a series of 26 pulses of 150 msec duration to −20 mV at a frequency of 5 Hz. Cells were then left unclamped for a period of 3 to 8 minutes while a single concentration of test compound was added. Cells were then reclamped and put through the same voltage protocol. Current at the end of the 26th pulse to −20 mV was subtracted from the peak current evoked by the 26th pulse to −20 mV to correct for leak current. Percent block was calculated for each concentration in duplicate, and IC50 curves were fitted to percent block as a function of concentration."}, "[2]": {"biological_target": "Nav 1.7 (Homo sapiens (Human), UniProt Q15858)", "sequence (Q15858 whole entry)": "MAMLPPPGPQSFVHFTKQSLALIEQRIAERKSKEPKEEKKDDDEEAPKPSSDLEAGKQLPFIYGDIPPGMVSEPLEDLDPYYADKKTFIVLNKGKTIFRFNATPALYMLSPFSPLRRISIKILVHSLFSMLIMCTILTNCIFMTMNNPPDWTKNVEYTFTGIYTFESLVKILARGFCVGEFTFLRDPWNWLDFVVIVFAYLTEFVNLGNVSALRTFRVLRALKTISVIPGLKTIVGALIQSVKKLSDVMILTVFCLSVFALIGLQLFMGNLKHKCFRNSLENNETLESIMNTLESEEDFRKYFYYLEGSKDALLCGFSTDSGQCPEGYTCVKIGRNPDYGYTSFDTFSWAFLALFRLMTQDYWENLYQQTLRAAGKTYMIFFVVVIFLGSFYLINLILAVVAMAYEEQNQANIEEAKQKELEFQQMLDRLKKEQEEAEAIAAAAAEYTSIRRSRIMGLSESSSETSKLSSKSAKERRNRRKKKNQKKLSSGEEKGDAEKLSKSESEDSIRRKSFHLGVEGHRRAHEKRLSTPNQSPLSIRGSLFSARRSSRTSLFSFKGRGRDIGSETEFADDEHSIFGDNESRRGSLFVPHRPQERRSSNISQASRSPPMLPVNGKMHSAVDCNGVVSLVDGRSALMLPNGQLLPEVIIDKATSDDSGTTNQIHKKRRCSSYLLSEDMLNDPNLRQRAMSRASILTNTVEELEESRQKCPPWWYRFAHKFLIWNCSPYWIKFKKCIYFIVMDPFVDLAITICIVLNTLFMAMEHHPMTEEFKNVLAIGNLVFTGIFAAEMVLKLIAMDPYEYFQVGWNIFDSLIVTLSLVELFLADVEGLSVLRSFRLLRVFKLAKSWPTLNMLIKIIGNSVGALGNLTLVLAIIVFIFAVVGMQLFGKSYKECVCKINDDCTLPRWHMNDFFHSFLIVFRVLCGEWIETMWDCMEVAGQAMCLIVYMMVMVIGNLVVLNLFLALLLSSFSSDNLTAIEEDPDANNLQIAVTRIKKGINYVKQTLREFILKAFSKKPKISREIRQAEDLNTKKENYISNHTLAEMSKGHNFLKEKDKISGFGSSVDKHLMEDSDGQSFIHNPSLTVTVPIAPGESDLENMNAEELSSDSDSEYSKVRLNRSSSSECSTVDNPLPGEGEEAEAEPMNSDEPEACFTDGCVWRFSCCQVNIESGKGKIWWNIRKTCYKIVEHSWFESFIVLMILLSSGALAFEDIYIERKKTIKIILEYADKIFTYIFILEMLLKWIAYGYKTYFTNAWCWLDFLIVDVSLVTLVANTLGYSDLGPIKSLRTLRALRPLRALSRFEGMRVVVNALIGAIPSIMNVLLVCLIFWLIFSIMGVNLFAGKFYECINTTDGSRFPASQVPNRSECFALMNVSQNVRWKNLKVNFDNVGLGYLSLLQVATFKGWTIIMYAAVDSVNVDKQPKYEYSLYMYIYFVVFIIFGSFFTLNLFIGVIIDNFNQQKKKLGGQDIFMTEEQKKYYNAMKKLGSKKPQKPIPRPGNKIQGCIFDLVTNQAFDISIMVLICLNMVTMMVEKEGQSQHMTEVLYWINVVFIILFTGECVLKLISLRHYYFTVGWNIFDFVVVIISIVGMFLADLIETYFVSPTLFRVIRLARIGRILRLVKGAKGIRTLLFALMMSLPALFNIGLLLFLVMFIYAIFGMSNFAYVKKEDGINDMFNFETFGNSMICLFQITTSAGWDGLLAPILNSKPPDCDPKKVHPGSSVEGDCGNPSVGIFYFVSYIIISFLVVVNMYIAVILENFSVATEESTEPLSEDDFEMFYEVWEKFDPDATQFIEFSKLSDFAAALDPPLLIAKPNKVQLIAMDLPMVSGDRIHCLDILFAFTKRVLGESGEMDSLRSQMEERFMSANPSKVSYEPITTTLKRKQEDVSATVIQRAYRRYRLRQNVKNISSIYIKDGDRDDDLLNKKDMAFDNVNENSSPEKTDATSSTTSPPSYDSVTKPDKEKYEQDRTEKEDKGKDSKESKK", "experiment": "Nav 1.7 in vitro assay (IonWorks Quattro population patch-clamp)", "format": "cell-based", "conditions": "293 cells stably transfected with Nav 1.7; 26th pulse to -20 mV, 5 Hz", "experimental": "as §1, §2, §3"}},
  "data": [
    {"smiles": "Cn1cc(-c2ccc(C(F)(F)F)cc2C2=CCNCC2)c2ccc(S(=O)(=O)Nc3nccs3)cc21", "note": "[Example 65, 1-Methyl-3-(2-(1,2,3,6-Tetrahydropyridin-4-Yl)-4-(Trifluoromethyl)Phenyl)-N-(Thiazol-2-Yl)-1H-Indole-6-Sulfonamide 2,2,2-Trifluoroacetate]", "values": [
      {"measurement": "IC50", "setting": "[1]", "value": "> 10000", "unit": "nM"},
      {"measurement": "IC50", "setting": "[2]", "value": 269, "unit": "nM"}
    ]},
    {"smiles": "Cn1cc(-c2ccc(C(F)(F)F)cc2C2=CCNCC2)c2ccc(S(=O)(=O)Nc3cscn3)cc21", "note": "[Example 66, 1-Methyl-3-(2-(1,2,3,6-Tetrahydropyridin-4-Yl)-4-(Trifluoromethyl)Phenyl)-N-(Thiazol-4-Yl)-1H-Indole-6-Sulfonamide]", "values": [
      {"measurement": "IC50", "setting": "[1]", "value": "> 10000", "unit": "nM"},
      {"measurement": "IC50", "setting": "[2]", "value": 1410, "unit": "nM"}
    ]}
  ]
}
